Source: the supplement of paper PMC10627819

Legend:
[1] = tested on: B. subtilis 168; assay: fitness (endpoint OD595 vs no drug) (fraction); higher = more growth
Summary of the method: (§1)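 In 384-well plates at 37 °C, cultures began at OD595 0.01 in 30 µl, with 55 µl used for S. pneumoniae. OD595 readings every 30 min for 14 h were corrected by the first reading. Fitness divides the stationary-phase transition optical density by the robust mean of no-drug control wells. The result is capped at 1.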

[2] = tested on: S. aureus DSM 20231; assay: as above
Summary of the method: as §1

[3] = tested on: S. aureus Newman; assay: as above
Summary of the method: as §1

[4] = tested on: S. pneumoniae D39V; assay: as above
Summary of the method: as §1

[5] = tested on: B. subtilis 168; assay: Bliss interaction score (quartile over a dose matrix) (fitness difference); higher = more antagonism (negative = synergy)
Summary of the method: (§2)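 Fitness is OD595 at stationary-phase entry relative to the plate's robust no-drug mean, capped at 1. Single-drug fitness was inferred from combinations. The Bliss score is observed minus product-expected fitness, summarised by quartiles over technical, biological and donor/recipient replicates.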

[6] = tested on: S. aureus DSM 20231; assay: as above
Summary of the method: as §2

[7] = tested on: S. aureus Newman; assay: as above
Summary of the method: as §2

[8] = tested on: S. pneumoniae D39V; assay: as above
Summary of the method: as §2
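Throughout, for Bliss interaction score (quartile over a dose matrix): first quartile when negative (synergy) and third quartile when positive (antagonism).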

Cc1ncc([N+](=O)[O-])n1CCO [Metronidazole] + CC1=C\[C@@H](O)CC(=O)Cc2nc(co2)C(=O)N2CCC=C2C(=O)O[C@H](C(C)C)[C@H](C)/C=C/C(=O)NC\C=C\1 [Virginiamycin M1]
Conditions	fitness
[1], first compound 0.625 µg/mL, partner 0.0625 µg/mL	0.995
[1], first compound 0.625 µg/mL, partner 0.125 µg/mL	0.946
[1], first compound 0.625 µg/mL, partner 0.25 µg/mL	0.956
[1], first compound 1.25 µg/mL, partner 0.0625 µg/mL	0.951
[1], first compound 1.25 µg/mL, partner 0.125 µg/mL	0.938
[1], first compound 1.25 µg/mL, partner 0.25 µg/mL	≥ 1
[1], first compound 2.5 µg/mL, partner 0.0625 µg/mL	0.929
[1], first compound 2.5 µg/mL, partner 0.125 µg/mL	0.944
[1], first compound 2.5 µg/mL, partner 0.25 µg/mL	0.96
[2], first compound 0.625 µg/mL, partner 0.0625 µg/mL	≥ 1
[2], first compound 0.625 µg/mL, partner 0.125 µg/mL	≥ 1
[2], first compound 0.625 µg/mL, partner 0.25 µg/mL	≥ 1
[2], first compound 1.25 µg/mL, partner 0.0625 µg/mL	≥ 1
[2], first compound 1.25 µg/mL, partner 0.125 µg/mL	≥ 1
[2], first compound 1.25 µg/mL, partner 0.25 µg/mL	≥ 1
[2], first compound 2.5 µg/mL, partner 0.0625 µg/mL	≥ 1
[2], first compound 2.5 µg/mL, partner 0.125 µg/mL	≥ 1
[2], first compound 2.5 µg/mL, partner 0.25 µg/mL	≥ 1
[3], first compound 0.625 µg/mL, partner 0.0625 µg/mL	0.97
[3], first compound 0.625 µg/mL, partner 0.125 µg/mL	0.973
[3], first compound 0.625 µg/mL, partner 0.25 µg/mL	0.975
[3], first compound 1.25 µg/mL, partner 0.0625 µg/mL	0.984
[3], first compound 1.25 µg/mL, partner 0.125 µg/mL	0.993
[3], first compound 1.25 µg/mL, partner 0.25 µg/mL	≥ 1
[3], first compound 2.5 µg/mL, partner 0.0625 µg/mL	0.992
[3], first compound 2.5 µg/mL, partner 0.125 µg/mL	≥ 1
[3], first compound 2.5 µg/mL, partner 0.25 µg/mL	0.991
[4], first compound 1.073 µg/mL, partner 0.5 µg/mL	≥ 1
[4], first compound 1.073 µg/mL, partner 1 µg/mL	≥ 1
[4], first compound 1.073 µg/mL, partner 2 µg/mL	≥ 1
[4], first compound 1.25 µg/mL, partner 2 µg/mL	0.944
[4], first compound 2.145 µg/mL, partner 0.5 µg/mL	0.912
[4], first compound 2.145 µg/mL, partner 1 µg/mL	0.945
[4], first compound 2.145 µg/mL, partner 2 µg/mL	0.877
[4], first compound 2.5 µg/mL, partner 2 µg/mL	0.94
[4], first compound 4.29 µg/mL, partner 0.5 µg/mL	≥ 1
[4], first compound 4.29 µg/mL, partner 1 µg/mL	0.994
[4], first compound 4.29 µg/mL, partner 2 µg/mL	≥ 1
[4], first compound 5 µg/mL, partner 2 µg/mL	0.946

fitness, one replicate
Conditions	first compound 0.625 µg/mL	first compound 1.25 µg/mL	first compound 2.5 µg/mL	first compound 5 µg/mL
[2], partner 0.5 µg/mL	0.825	0.842	0.978	–
[2], partner 1 µg/mL	0.725	0.827	0.908	–
[3], partner 0.5 µg/mL	0.902	0.899	0.89	–
[3], partner 1 µg/mL	0.912	0.922	≥ 1	–
[3], partner 2 µg/mL	0.919	0.919	0.949	–
[4], partner 0.15 µg/mL	–	≥ 1	≥ 1	≥ 1
[4], partner 0.3 µg/mL	–	≥ 1	0.987	0.96
[4], partner 0.5 µg/mL	–	≥ 1	0.973	≥ 1
[4], partner 1 µg/mL	–	≥ 1	≥ 1	≥ 1

Conditions	Bliss interaction score
[5]	-0.0294
[6]	0.0516
[7]	0.0634
[8]	0.0226

Cc1ncc([N+](=O)[O-])n1CCO [Metronidazole] + CCN(CC)CCOC(=O)c1ccc(N)cc1 [Procaine]
fitness
Conditions	partner 85.5 µg/mL	partner 171 µg/mL	partner 342 µg/mL
[1], first compound 0.625 µg/mL	0.94	0.944	0.876
[1], first compound 1.25 µg/mL	0.935	0.956	0.937
[1], first compound 2.5 µg/mL	0.896	0.868	0.958
[2], first compound 0.625 µg/mL	0.996	≥ 1	≥ 1
[2], first compound 1.25 µg/mL	0.977	≥ 1	≥ 1
[2], first compound 2.5 µg/mL	0.938	≥ 1	≥ 1
[3], first compound 0.625 µg/mL	0.934	0.934	0.686
[3], first compound 1.25 µg/mL	0.858	0.988	–
[3], first compound 2.5 µg/mL	0.814	0.876	–
[4], first compound 1.073 µg/mL	0.979	0.969	0.939
[4], first compound 2.145 µg/mL	0.911	0.948	0.89
[4], first compound 4.29 µg/mL	0.914	0.894	0.927

fitness, one replicate
Conditions	first compound 0.781 µg/mL	first compound 1.25 µg/mL	first compound 1.562 µg/mL	first compound 2.5 µg/mL	first compound 3.124 µg/mL	first compound 5 µg/mL
[3], partner 85.5 µg/mL	≥ 1	–	≥ 1	–	≥ 1	–
[3], partner 171 µg/mL	≥ 1	–	≥ 1	–	≥ 1	–
[3], partner 342 µg/mL	≥ 1	–	≥ 1	–	≥ 1	–
[4], partner 85.5 µg/mL	–	≥ 1	–	≥ 1	–	0.979
[4], partner 171 µg/mL	–	≥ 1	–	≥ 1	–	≥ 1
[4], partner 342 µg/mL	–	0.952	–	≥ 1	–	0.95

Conditions	Bliss interaction score
[5]	-0.0393
[6]	0.0477
[7]	0.0807
[8]	-0.0526
